From PubChem BioAssay (NCI)
Where “and” joins values, the source holds several entries; their conditions need not be identical. Identical values can stand only once.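 A five-concentration, 48-hour dose response in 96-well plates underlies each endpoint, interpolated linearly between surrounding concentrations. GI50 = concentration required for 50% inhibition of growth. TGI marks complete inhibition of growth.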

What follows are molecules tested on LOX IMVI melanoma (assay: NCI tumour cell line growth inhibition, 48 h).
In the case of `O=C(/C=C/c1c(O)ccc2ccccc12)c1ccc([N+](=O)[O-])cc1`, the TGI is reported as 33.4 µM.

These molecules were tested on NCI-H460 lung (assay: NCI tumour cell line growth inhibition, 48 h).
`CN(C)c1ccc(/C=N/NC(=S)Nc2ccccc2)cc1` showed a TGI greater than 100 µM.
Work on `COc1ccc2ncnc(Nc3ccc(OCc4ccccc4)cc3)c2c1` yielded a GI50 of 7.58 µM and a TGI greater than 25 µM.
`O=C1c2c(F)c(F)c(F)c(F)c2C(=O)N1c1ccc(F)cc1F` was tested, and the GI50 was 9.35 µM and the TGI was greater than 51 µM.
`O=C1C(C(Nc2ccccc2)c2ccccc2)=C([O-])c2ccccc21.O=C1C(C(Nc2ccccc2)c2ccccc2)=C([O-])c2ccccc21.[Cu+2]` (configuration not stated) gave a GI50 of 40 µM and a TGI greater than 100 µM.
In the case of `OC(c1cc(C(F)(F)F)nc2c(C(F)(F)F)cccc12)C1CCCCN1` (configuration not stated), the GI50 is reported as 2.07 µM and the TGI is reported as 4.14 µM.
In the case of `C/C=C/[C@@H]1O[C@@H]2COC(=O)C2=C[C@@H]1O`, the GI50 is reported as greater than 57.7 µM and the TGI is reported as greater than 100 µM.
With `COC(=O)/C=C/c1cc(OC(C)=O)c2c(c1)[C@@H](C(=O)OC)[C@H](c1ccc(OC(C)=O)c(OC(C)=O)c1)O2` the GI50 was 0.299 µM and the TGI was 15 µM.
With `Nc1nc2[nH]cc(CCc3ccc(C(=O)N[C@@H](CCC(=O)O)C(=O)O)cc3)c2c(=O)[nH]1` the GI50 was 0.272 µM and the TGI was greater than 100 µM.
`CCC(C)SC1SCC2C(=O)N(C)C3(CC3C)C(=O)OCC(NC(=O)c3nc4ccccc4cc3O)C(=O)NC(C)C(=O)N(C)C1C(=O)N(C)C1(CC1C)C(=O)OCC(NC(=O)c1nc3ccccc3cc1O)C(=O)NC(C)C(=O)N2C` (configuration not stated) gave a TGI of 0.0262 µM.
Work on `CN1CCN(C(=O)COc2ccc(C34CC5CC(CC(C5)C3)C4)cc2)CC1` yielded a GI50 of 13.2 µM and a TGI of 27.5 µM.
For `Cc1[cH-]c(=O)n(-c2ccccc2)n1.[Au+].[Au].c1ccc([PH+](c2ccccc2)c2ccccc2)cc1.c1ccc([PH+](c2ccccc2)c2ccccc2)cc1`, the GI50 was 14.4 µM and the TGI was 37.7 µM.
`COc1ccccc1NC(=O)c1cc2cc(Br)ccc2cc1O` was tested, and the GI50 was 2.15 µM and the TGI was 6.77 µM.
For `CC(=O)OCc1ccc2c(c1)C(O)NC(=O)O2` (configuration not stated), the TGI was greater than 100 µM.
With `CC1(C)CC(c2c[nH]c3ccccc23)=CC2=Nc3ccccc3C21O` (configuration not stated) the TGI was greater than 100 µM.
`O=C(Nc1nn2c(-c3cc(C(F)(F)F)cc(C(F)(F)F)c3)nnc2s1)C1CCCC1` was tested, and the GI50 was 0.473 µM and the TGI was greater than 100 µM.
In the case of `COC(=O)[C@]12CC[C@@H](C)[C@H](C)[C@@H]1C1=CC[C@@H]3[C@@]4(C)C[C@@H](O)[C@H](O)[C@@](C)(CO)[C@@H]4[C@H](O)C[C@@]3(C)[C@]1(C)CC2`, the GI50 is reported as 14.8 µM and the TGI is reported as 33.6 µM.
For `COc1ccc(CN2C(=O)C(Cl)=C(Nc3cccc(C(F)(F)F)c3)C2=O)cc1`, the GI50 was 3.1 µM and the TGI was 15.1 µM.
`COCCn1cc(-c2nc(-c3cc4cccnc4[nH]3)cs2)c2cc(OC)ccc21` gave a GI50 of 1.1 µM and a TGI of 12.9 µM.
Molecule `O=[N+]([O-])c1cc([N+](=O)[O-])c(C(F)(F)F)cc1NN=C(c1ccc(O)cc1)c1ccc(O)cc1` has a GI50 of 2.05 µM and a TGI of 5.13 µM.
`c1ccc(Nc2ncc(-c3ccccc3)o2)cc1` was tested, and the GI50 was 25 µM and the TGI was greater than 25 µM.
In the case of `COc1c2ccccc2c(OC)c2[nH]c(=O)ccc12`, the GI50 is reported as 1.51 µM and the TGI is reported as 4 µM.
`O=C(O)C(Cl)Cl` was tested, and the GI50 was 6070 µM and > 10000 µM and the TGI was greater than 10000 µM.
Molecule `NC(=S)N/N=C\c1nccc2c(C(F)(F)F)cccc12` has a GI50 of 0.26 µM and a TGI of 8.59 µM.
For `CC(=O)N[C@@H](Cc1ccc(OP(=O)(O)O)cc1)C(=O)N[C@H]1CCC(=O)N2CCC[C@@H](C(=O)Nc3cccc4ccccc34)N2C1=O`, the GI50 was greater than 25 µM and the TGI was greater than 25 µM.
`O=C(/C=C/c1c(O)ccc2ccccc12)c1ccc([N+](=O)[O-])cc1` showed a TGI greater than 100 µM.

Each molecule was assayed on COLO 205 colon (assay: NCI tumour cell line growth inhibition, 48 h).
Work on `CN(C)c1ccc(/C=N/NC(=S)Nc2ccccc2)cc1` yielded a TGI greater than 100 µM.
`COc1ccc2ncnc(Nc3ccc(OCc4ccccc4)cc3)c2c1` showed a GI50 of 7.96 µM and a TGI greater than 25 µM.
`O=C1c2c(F)c(F)c(F)c(F)c2C(=O)N1c1ccc(F)cc1F` was tested, and the GI50 was 10.9 µM and the TGI was 35.7 µM.
For `O=C1C(C(Nc2ccccc2)c2ccccc2)=C([O-])c2ccccc21.O=C1C(C(Nc2ccccc2)c2ccccc2)=C([O-])c2ccccc21.[Cu+2]` (configuration not stated), the GI50 was 32.1 µM and the TGI was greater than 100 µM.
With `OC(c1cc(C(F)(F)F)nc2c(C(F)(F)F)cccc12)C1CCCCN1` (configuration not stated) the GI50 was 1.83 µM and the TGI was 3.3 µM.
`C/C=C/[C@@H]1O[C@@H]2COC(=O)C2=C[C@@H]1O` gave a GI50 of 2.78 µM and a TGI greater than 19.6 µM.
`COC(=O)/C=C/c1cc(OC(C)=O)c2c(c1)[C@@H](C(=O)OC)[C@H](c1ccc(OC(C)=O)c(OC(C)=O)c1)O2` was tested, and the GI50 was 3.57 µM and the TGI was 24.7 µM.
Work on `Nc1nc2[nH]cc(CCc3ccc(C(=O)N[C@@H](CCC(=O)O)C(=O)O)cc3)c2c(=O)[nH]1` yielded a GI50 greater than 34.6 µM and a TGI greater than 100 µM.
Work on `CCC(C)SC1SCC2C(=O)N(C)C3(CC3C)C(=O)OCC(NC(=O)c3nc4ccccc4cc3O)C(=O)NC(C)C(=O)N(C)C1C(=O)N(C)C1(CC1C)C(=O)OCC(NC(=O)c1nc3ccccc3cc1O)C(=O)NC(C)C(=O)N2C` (configuration not stated) yielded a TGI of 0.000194 µM.
Work on `CN1CCN(C(=O)COc2ccc(C34CC5CC(CC(C5)C3)C4)cc2)CC1` yielded a GI50 of 5.53 µM and a TGI of 20.5 µM.
`Cc1[cH-]c(=O)n(-c2ccccc2)n1.[Au+].[Au].c1ccc([PH+](c2ccccc2)c2ccccc2)cc1.c1ccc([PH+](c2ccccc2)c2ccccc2)cc1` gave a GI50 of 25.3 µM and a TGI of 60.6 µM.
`COc1ccccc1NC(=O)c1cc2cc(Br)ccc2cc1O` gave a GI50 of 4 µM and a TGI of 15.8 µM.
`CC(=O)OCc1ccc2c(c1)C(O)NC(=O)O2` (configuration not stated) showed a TGI greater than 100 µM.
With `CC1(C)CC(c2c[nH]c3ccccc23)=CC2=Nc3ccccc3C21O` (configuration not stated) the TGI was greater than 100 µM.
For `O=C(Nc1nn2c(-c3cc(C(F)(F)F)cc(C(F)(F)F)c3)nnc2s1)C1CCCC1`, the GI50 was 1.49 µM and the TGI was 2.86 µM.
In the case of `COC(=O)[C@]12CC[C@@H](C)[C@H](C)[C@@H]1C1=CC[C@@H]3[C@@]4(C)C[C@@H](O)[C@H](O)[C@@](C)(CO)[C@@H]4[C@H](O)C[C@@]3(C)[C@]1(C)CC2`, the GI50 is reported as 14.8 µM and the TGI is reported as 31.2 µM.
Work on `COc1ccc(CN2C(=O)C(Cl)=C(Nc3cccc(C(F)(F)F)c3)C2=O)cc1` yielded a GI50 of 5.07 µM and a TGI of 18.8 µM.
With `COCCn1cc(-c2nc(-c3cc4cccnc4[nH]3)cs2)c2cc(OC)ccc21` the GI50 was 4.01 µM and the TGI was 24.7 µM.
`O=[N+]([O-])c1cc([N+](=O)[O-])c(C(F)(F)F)cc1NN=C(c1ccc(O)cc1)c1ccc(O)cc1` gave a GI50 of 2.15 µM and a TGI of 5.33 µM.
`c1ccc(Nc2ncc(-c3ccccc3)o2)cc1` showed a GI50 greater than 25 µM and a TGI greater than 25 µM.
Molecule `COc1c2ccccc2c(OC)c2[nH]c(=O)ccc12` has a GI50 of 4.3 µM and a TGI of 14.9 µM.
Work on `O=C(O)C(Cl)Cl` yielded a GI50 greater than 10000 µM and a TGI greater than 10000 µM.
Molecule `NC(=S)N/N=C\c1nccc2c(C(F)(F)F)cccc12` has a GI50 of 0.237 µM and a TGI of 10.8 µM.
`CC(=O)N[C@@H](Cc1ccc(OP(=O)(O)O)cc1)C(=O)N[C@H]1CCC(=O)N2CCC[C@@H](C(=O)Nc3cccc4ccccc34)N2C1=O` gave a GI50 greater than 25 µM and a TGI greater than 25 µM.
In the case of `O=C(/C=C/c1c(O)ccc2ccccc12)c1ccc([N+](=O)[O-])cc1`, the TGI is reported as greater than 72.5 µM.

What follows are molecules tested on UACC-62 melanoma (assay: NCI tumour cell line growth inhibition, 48 h).
In the case of `CN(C)c1ccc(/C=N/NC(=S)Nc2ccccc2)cc1`, the TGI is reported as greater than 100 µM.
With `COc1ccc2ncnc(Nc3ccc(OCc4ccccc4)cc3)c2c1` the GI50 was 6.12 µM and the TGI was greater than 18.1 µM.
Work on `O=C1c2c(F)c(F)c(F)c(F)c2C(=O)N1c1ccc(F)cc1F` yielded a GI50 of 4.11 µM and a TGI of 14.3 µM.
`O=C1C(C(Nc2ccccc2)c2ccccc2)=C([O-])c2ccccc21.O=C1C(C(Nc2ccccc2)c2ccccc2)=C([O-])c2ccccc21.[Cu+2]` (configuration not stated) was tested, and the GI50 was 50.6 µM and the TGI was greater than 100 µM.
`OC(c1cc(C(F)(F)F)nc2c(C(F)(F)F)cccc12)C1CCCCN1` (configuration not stated) was tested, and the GI50 was 1.89 µM and the TGI was 4.47 µM.
With `C/C=C/[C@@H]1O[C@@H]2COC(=O)C2=C[C@@H]1O` the GI50 was 17.5 µM and the TGI was 34.6 µM.
`COC(=O)/C=C/c1cc(OC(C)=O)c2c(c1)[C@@H](C(=O)OC)[C@H](c1ccc(OC(C)=O)c(OC(C)=O)c1)O2` gave a GI50 of 0.359 µM and a TGI of 26 µM.
Molecule `Nc1nc2[nH]cc(CCc3ccc(C(=O)N[C@@H](CCC(=O)O)C(=O)O)cc3)c2c(=O)[nH]1` has a TGI greater than 100 µM.
Molecule `CCC(C)SC1SCC2C(=O)N(C)C3(CC3C)C(=O)OCC(NC(=O)c3nc4ccccc4cc3O)C(=O)NC(C)C(=O)N(C)C1C(=O)N(C)C1(CC1C)C(=O)OCC(NC(=O)c1nc3ccccc3cc1O)C(=O)NC(C)C(=O)N2C` (configuration not stated) has a TGI of 5.01e-05 µM.
Molecule `CN1CCN(C(=O)COc2ccc(C34CC5CC(CC(C5)C3)C4)cc2)CC1` has a GI50 of 11 µM and a TGI of 23.4 µM.
`Cc1[cH-]c(=O)n(-c2ccccc2)n1.[Au+].[Au].c1ccc([PH+](c2ccccc2)c2ccccc2)cc1.c1ccc([PH+](c2ccccc2)c2ccccc2)cc1` was tested, and the GI50 was 3.55 µM and 22.2 µM and the TGI was greater than 100 µM.
For `COc1ccccc1NC(=O)c1cc2cc(Br)ccc2cc1O`, the GI50 was 1.7 µM and the TGI was 8.23 µM.
